Data from PubChem BioAssay (NCI).
In brackets after ≈: the same amount, converted by molar mass. Several values for one entry are separate records, joined by “and”; a condition that tells them apart may be missing. Equal entries are not always repeated.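 Grown in 96-well plates, cells were treated for 48 hours with each compound at five concentrations. Insufficient inhibition: endpoint recorded as highest concentration tested. GI50 is the concentration that inhibits growth by half. TGI marks complete inhibition of growth.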

Legend:
Experiment in all cases: NCI-60 cell line screen, 48 h
[1] = test system: A498 renal
[2] = test system: HCT-116 colon
[3] = test system: HT29 colon
[4] = test system: K-562 leukemia
[5] = test system: NCI-H460 lung
[6] = test system: SN12C renal
[7] = test system: SNB-19 CNS
[8] = test system: BT-549 breast
[9] = test system: HS 578T breast
[10] = test system: MCF7 breast

SMILES	TGI [1] [µM]	TGI [2]	TGI [3]	TGI [4]	TGI [5]	TGI [6]	TGI [7]	GI50 [2]	TGI [8]	TGI [9]	TGI [10]	GI50 [8] [µg/mL]	GI50 [9] [µg/mL]	GI50 [3]	GI50 [4] [µg/mL]	GI50 [10]	GI50 [5]	GI50 [6]	GI50 [7]
Brc1ccc(C[P+]2(c3ccccc3)CCCCC2)cc1	> 100	> 100 µM	> 100 µM	> 100 µM	> 100 µM	> 100 µM	> 100 µM												
O=C(N/N=C/c1cc(Cl)cc(Cl)c1[O-])c1ccccc1O.O=C(N/N=C/c1cc(Cl)cc(Cl)c1[O-])c1ccccc1O.[Co+2]		14 µM	17.4 µM		11.1 µM			0.552 µM											
O=C(O)Cc1ccc(Nc2nc3cc(C(F)(F)F)ccc3nc2C(=O)O)cc1	> 100	> 100 µM	> 100 µM		> 100 µM	> 100 µM	> 100 µM		> 100 µM	> 100 µM	> 100 µM								
OC1(c2ccc(-c3ccccc3)cc2)c2ccccc2C2=NCCN21 (stereo not given)	> 100	> 100 µM	50.3 µM	> 100 µM	> 100 µM	> 100 µM	38.3 µM		> 100 µM	75.4 µM									
CS(=O)(=O)c1nc(-c2cc3c(c(S(C)(=O)=O)n2)CCCC3)cc2c1CCCCC2		> 100 µM	> 100 µM			> 100 µM	> 100 µM		> 100 µM										
COC(=O)CCC1=C(CC(=O)OC)C(C)(OC)N=C1NC(=O)OCc1ccccc1 (stereo not given)	> 100	> 100 µM	> 100 µM	> 100 µM	> 100 µM	> 100 µM	> 100 µM		> 100 µM		> 100 µM								
CC(=O)c1c(C)nc(SSc2nc(C)c(C(C)=O)c(-c3ccc(Cl)cc3)c2C#N)c(C#N)c1-c1ccc(Cl)cc1		> 150 µg/mL	> 150 µg/mL	> 150 µg/mL	> 150 µg/mL	15 µg/mL	> 150 µg/mL	94.4 µg/mL	97.2 µg/mL	54.8 µg/mL	> 150 µg/mL	38.4 (≈ 63.6 µM)	22.9 (≈ 37.9 µM)	> 150 µg/mL	60.6 (≈ 100 µM)	> 150 µg/mL	136 µg/mL	15 µg/mL	78.4 µg/mL
CCOC(=O)c1[nH]c(Br)c(-c2ccc(OC)c(OC)c2)c1Br	0.194	13.7 µM	0.0667 µM and 0.308 µM	12.7 µM	> 100 µM	49.4 µM	17.6 µM		3.16 µM		17.2 µM			0.0258 µM		0.338 µM	19.2 µM	1.59 µM	0.0137 µM
CCC1(N=[N+]=[N-])C(=O)c2ccccc2N(C)C1=O (stereo not given)	> 100	> 100 µM	> 100 µM	> 100 µM	> 100 µM	> 100 µM	> 100 µM												
Cc1nc(CC#N)n[nH]1		> 100 µM	> 100 µM	> 100 µM		> 100 µM	> 100 µM		> 100 µM		> 100 µM								
C#C/C=C\CCCC/C=C\C#CC#CCCCC#CC#C[C@H](COS(=O)(=O)O)OS(=O)(=O)O		> 100 µM	> 100 µM		> 100 µM	> 100 µM	> 100 µM		> 100 µM	> 100 µM	> 100 µM								
COc1ccc(C(=O)O[C@H]2[C@@H]3C=CO[C@@H](OC4OC(CO)C(O)C(O)C4O)[C@@H]3[C@@]3(CO)O[C@@H]23)cc1O (stereo not given in full)	> 100		> 100 µM	> 100 µM	> 100 µM	> 100 µM	> 100 µM												
Cc1cnc2sn(-c3ccc([N+](=O)[O-])cc3)c(=O)c2c1		> 100 µM	> 100 µM	> 100 µM	> 100 µM	> 100 µM	> 100 µM		> 100 µM	> 100 µM	> 100 µM								
O=C(OC1C2OC(=O)c3cc(O)c(O)c(O)c3Oc3cc4c(c(O)c3O)-c3c(cc(O)c(O)c3O)C(=O)OCC3OC(O)C(OC(=O)c5cc(O)c(O)c(O)c5Oc5cc6c(c(O)c5O)-c5c(cc(O)c(O)c5O)C(=O)OC1C(COC6=O)OC2O)C(OC(=O)c1cc(O)c(O)c(O)c1)C3OC4=O)c1cc(O)c(O)c(O)c1 (stereo not given)		57.2 µM	51.6 µM	42.8 µM	14.3 µM	> 100 µM	51.6 µM			63.8 µM	> 100 µM								
O=S(=O)(O)c1cc(N=Nc2c(O)ccc3ccccc23)ccc1/C=C/c1ccc(N=Nc2c(O)ccc3ccccc23)cc1S(=O)(=O)O		> 100 µM	> 100 µM	> 100 µM		> 100 µM	> 100 µM		> 100 µM	> 100 µM									
COc1ccc(C(c2c(O)c3ccccc3n(-c3ccccc3)c2=O)c2c(O)c3ccccc3n(-c3ccccc3)c2=O)cc1		> 100 µM		> 100 µM		> 100 µM	> 100 µM												
Cc1ccc(NC=O)c(-c2c(N)[nH]c(=S)[nH]c2=O)c1	> 100	> 100 µM	> 100 µM	> 100 µM		> 100 µM	> 100 µM		> 100 µM	> 100 µM	> 100 µM								
CC(=O)OC12C3C4C1C1C2C3C41OC(C)=O (stereo not given)	> 100	> 100 µM	> 100 µM	> 100 µM	> 100 µM	> 100 µM			> 100 µM		> 100 µM								
Cc1c2ccncc2cc2c1[nH]c1ccccc12	12.2	7.12 µM	31.5 µM	6.01 µM	5.77 µM	9.12 µM	34.7 µM				23.5 µM								
CO/N=C(/C)c1cccc(Nc2nc3ccccc3c3[nH]c4ccccc4c23)c1		14 µM	11.2 µM	> 100 µM	11.3 µM	25 µM	26.7 µM			35.8 µM	19.9 µM								
CCCC(CCC(N)=O)(CCC(N)=O)[N+](=O)[O-]		> 100 µM	> 100 µM	> 100 µM	> 100 µM	> 100 µM	> 100 µM		> 100 µM	> 100 µM	> 100 µM								
Cc1c2c3ccccc3nc-2n(C)c2ccccc12		> 100 µM	11.6 µM	5.28 µM	2.85 µM	6.97 µM	44.5 µM		19.3 µM	20 µM	5.98 µM								
CCP(=O)(CC)C(Cl)Cl		> 100 µM	> 100 µM	> 100 µM	> 100 µM	> 100 µM	> 100 µM			> 100 µM	> 100 µM								
